According to publication PMC11868595, “Safety, pharmacokinetics and efficacy of HA121-28 in patients with advanced solid tumors and RET fusion-positive non-small-cell lung cancer: a multicenter, open-label, single-arm phase 1/2 trial” (Signal Transduction and Targeted Therapy, 2025):
Where two headings read alike, the source gives them in different places.

Key:
BEL-7402 cells = assay: Tumor cell proliferation in vitro; type: cell-based; details: BEL-7402
FGFR4 = FGFR4 (Homo sapiens, UniProt P22455); assay: Tyrosine kinase inhibition; type: biochemical
Dog plasma kinetics = type: in vivo

Sequence of FGFR4 (P22455 22-802): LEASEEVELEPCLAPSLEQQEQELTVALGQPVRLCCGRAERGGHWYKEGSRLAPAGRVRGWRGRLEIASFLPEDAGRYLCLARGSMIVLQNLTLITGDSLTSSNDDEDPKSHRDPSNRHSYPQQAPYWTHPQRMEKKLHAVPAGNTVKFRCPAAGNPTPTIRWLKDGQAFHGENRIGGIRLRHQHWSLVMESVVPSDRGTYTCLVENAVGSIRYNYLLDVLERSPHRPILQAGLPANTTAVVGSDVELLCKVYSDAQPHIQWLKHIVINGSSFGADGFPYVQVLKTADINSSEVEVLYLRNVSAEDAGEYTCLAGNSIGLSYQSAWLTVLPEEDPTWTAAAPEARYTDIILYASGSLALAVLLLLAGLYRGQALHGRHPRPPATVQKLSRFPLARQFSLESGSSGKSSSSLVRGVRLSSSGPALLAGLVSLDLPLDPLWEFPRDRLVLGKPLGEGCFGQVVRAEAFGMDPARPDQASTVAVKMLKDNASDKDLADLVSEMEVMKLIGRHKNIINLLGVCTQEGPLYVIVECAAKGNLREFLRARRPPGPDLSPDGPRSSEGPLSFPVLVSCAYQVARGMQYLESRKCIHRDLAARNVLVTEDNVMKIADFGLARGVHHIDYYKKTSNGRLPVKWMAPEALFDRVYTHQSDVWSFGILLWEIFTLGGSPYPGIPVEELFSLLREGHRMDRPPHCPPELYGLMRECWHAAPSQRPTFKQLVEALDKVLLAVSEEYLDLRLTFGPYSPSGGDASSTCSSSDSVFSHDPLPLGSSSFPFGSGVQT

Compound: COc1cc2c(Nc3ccc(Br)cc3F)ncnc2cc1OCCCCN(C)C.Cl.Cl [HA121-28, N-(4-bromo-2-fluorophenyl)-7-(4-(dimethylamino)butoxy)-6-methoxy quinazolin-4-amine dihydrochloride]
- IC50 (BEL-7402 cells; read-out: IC50): 10 to 100 µM
- IC50 (BEL-7402 cells; read-out: IC50, proliferation): 9.91 ± 0.202 µM
- IC50 (FGFR4): 0.953 µM
- AUC0-72h (Dog plasma kinetics; 7 consecutive days (5 mg/kg)): 639 ± 69.0 ng·h/mL
- AUC0-∞ (Dog plasma kinetics; 7 consecutive days (5 mg/kg)): 655 ± 72.2 ng·h/mL
- CL (Dog plasma kinetics; 7 consecutive days (5 mg/kg)): 175 ± 21.5 mL/min/kg
- Cmax (Dog plasma kinetics; 7 consecutive days (5 mg/kg)): 30.6 ± 3.25 ng/mL
- MRT0-∞ (Dog plasma kinetics; 7 consecutive days (5 mg/kg)): 18.5 ± 1.89 h
- Tmax (Dog plasma kinetics; 7 consecutive days (5 mg/kg)): 6.17 ± 2.48 h
- Vd (Dog plasma kinetics; 7 consecutive days (5 mg/kg)): 214 ± 25.1 L/kg
- t1/2 (Dog plasma kinetics; 7 consecutive days (5 mg/kg)): 14.2 ± 1.19 h
- F (oral bioavailability) (Dog plasma kinetics; dog): 56.0%
- AUC0-72h (Dog plasma kinetics; high dose (10 mg/kg)): 837 ± 207 ng·h/mL
- AUC0-∞ (Dog plasma kinetics; high dose (10 mg/kg)): 848 ± 212 ng·h/mL
- CL (Dog plasma kinetics; high dose (10 mg/kg)): 212 ± 75.2 mL/min/kg
- Cmax (Dog plasma kinetics; high dose (10 mg/kg)): 58.9 ± 26.7 ng/mL
- MRT0-72h (Dog plasma kinetics; high dose (10 mg/kg)): 14.8 ± 1.96 h
- MRT0-∞ (Dog plasma kinetics; high dose (10 mg/kg)): 15.7 ± 2.45 h
- Tmax (Dog plasma kinetics; high dose (10 mg/kg)): 2.17 ± 0.753 h
- Vd (Dog plasma kinetics; high dose (10 mg/kg)): 197 ± 57.5 L/kg
- t1/2 (Dog plasma kinetics; high dose (10 mg/kg)): 11.0 ± 1.51 h
- AUC0-72h (Dog plasma kinetics; intravenous (2.5 mg/kg)): 489 ± 73.0 ng·h/mL
- AUC0-∞ (Dog plasma kinetics; intravenous (2.5 mg/kg)): 493 ± 73.7 ng·h/mL
- C5min (Dog plasma kinetics; intravenous (2.5 mg/kg)): 124 ± 17.6 ng/mL
- CL (Dog plasma kinetics; intravenous (2.5 mg/kg)): 86.3 ± 14.8 mL/min/kg
- MRT0-72h (Dog plasma kinetics; intravenous (2.5 mg/kg)): 10.9 ± 1.30 h
- MRT0-∞ (Dog plasma kinetics; intravenous (2.5 mg/kg)): 11.5 ± 1.51 h
- Vd (Dog plasma kinetics; intravenous (2.5 mg/kg)): 85.0 ± 27.0 L/kg
- t1/2 (Dog plasma kinetics; intravenous (2.5 mg/kg)): 11.2 ± 1.70 h
- AUC0-72h (Dog plasma kinetics; low dose (2.5 mg/kg)): 274 ± 68.2 ng·h/mL
- AUC0-∞ (Dog plasma kinetics; low dose (2.5 mg/kg)): 279 ± 70.5 ng·h/mL
- CL (Dog plasma kinetics; low dose (2.5 mg/kg)): 157 ± 37.3 mL/min/kg
- Cmax (Dog plasma kinetics; low dose (2.5 mg/kg)): 13.4 ± 2.71 ng/mL
- MRT0-72h (Dog plasma kinetics; low dose (2.5 mg/kg)): 16.3 ± 2.03 h
- MRT0-∞ (Dog plasma kinetics; low dose (2.5 mg/kg)): 17.6 ± 2.45 h
- Tmax (Dog plasma kinetics; low dose (2.5 mg/kg)): 6.50 ± 3.51 h
- Vd (Dog plasma kinetics; low dose (2.5 mg/kg)): 160 ± 41.3 L/kg
- t1/2 (Dog plasma kinetics; low dose (2.5 mg/kg)): 11.8 ± 1.00 h
- AUC0-72h (Dog plasma kinetics; medium dose (5 mg/kg)): 393 ± 74.0 ng·h/mL
- AUC0-∞ (Dog plasma kinetics; medium dose (5 mg/kg)): 398 ± 75.3 ng·h/mL
- CL (Dog plasma kinetics; medium dose (5 mg/kg)): 217 ± 42.8 mL/min/kg
- Cmax (Dog plasma kinetics; medium dose (5 mg/kg)): 24.8 ± 3.90 ng/mL
- MRT0-72h (Dog plasma kinetics; medium dose (5 mg/kg)): 14.3 ± 1.36 h
- MRT0-∞ (Dog plasma kinetics; medium dose (5 mg/kg)): 15.2 ± 1.57 h
- Tmax (Dog plasma kinetics; medium dose (5 mg/kg)): 2.17 ± 0.753 h
- Vd (Dog plasma kinetics; medium dose (5 mg/kg)): 217 ± 53.6 L/kg
- t1/2 (Dog plasma kinetics; medium dose (5 mg/kg)): 11.5 ± 1.16 h
